Results: patent publication US20080276732A1, “INDICATOR FOR ORALLY ADMINISTERED COMPOSITIONS” (MULTI FORMULATIONS LTD., priority 2007, published 2008)
“And” between values parts separate entries of the source, which are not always exact repeats. Equal entries are not always repeated. “Also recorded” adds a separate entry of the source. Where two headings read alike, the source gives them in different places.

Legend:
subjects [1] = conditions: single 30 mg oral dose of Niacin
Method: In order to test the ability of orally administered Niacin to induce a sensory effect a test was conducted. Five subjects were given a capsule containing Niacin and asked to report on any perceived sensory effects. Each capsule contained 30 mg of Niacin and filled to 150 mg with lactose as a filler-binder. Subjects were informed of the capsule contents and of possible effects. Subjects were asked to report any sensory effects felt, the time to onset and the duration of any effects.

individuals = conditions: Niacin at pharmacologically active doses; Benyo et al. 2005; cited from earlier work
subjects [2] = assay: Testing the efficacy of Yohimbine in capsule form: perceived sensory effects after oral administration; type: in vivo, human
Method: In order to test the ability of orally administered Yohimbine to induce a sensory effect a test was conducted. Four subjects were given a capsule containing Yohimbine and asked to report on any perceived sensory effects. Each capsule contained 5 mg of Yohimbine and filled to 150 mg with lactose as a filler-binder.

subjects [3] = assay: Testing the efficacy of Picamilon in capsule form: perceived sensory effects after oral administration; type: in vivo, human; conditions: single 100 mg oral dose of Picamilon
Method: In order to test the ability of orally administered Picamilon to induce a sensory effect a test was conducted. Six subjects were given a capsule containing Picamilon and asked to report on any perceived sensory effects. Each capsule contained 100 mg of Picamilon and filled to 150 mg with lactose as a filler-binder.

[4] = single 5 mg oral dose of Yohimbine, per subject
[5] = per subject, subject 1 separately for warmth and tingling

O=C(O)c1cccnc1 [Niacin, nicotinic acid]
Duration (subjects [1]; capsule, one line per subject): 45 min (2×) and 15 min | Time to Onset (subjects [1]; capsule, one line per subject): 10 to 15 min and 20 min and 15 min | subjects who experienced transient sensory effects (subjects [1]; five subjects): three of the five | time until the individual perceives a sensory effect (summary) (subjects [1]; summary of Table 1): ≤ 15 min | duration of the flushing effect (individuals): about 1 hr

COC(=O)[C@@H]1[C@H]2C[C@H]3c4[nH]c5ccccc5c4CCN3C[C@@H]2CC[C@@H]1O [Yohimbine]
onset time and duration of perceived sensory effects on average compared with Niacin and Picamilon (subjects [2]; 5 mg Yohimbine, oral): longer onset time and longer duration | subjects who reported noticeable effects (subjects [2]; single 5 mg oral dose of Yohimbine, four subjects): three of the four | Duration (subjects [2]; [4]): 10 to 15 min and 60 min and 120 min | Time to Onset (subjects [2]; [4]): 1 h and 0.5 h and 0.25 h

O=C(O)CCCNC(=O)c1cccnc1 [Picamilon, N-nicotinoyl-gamma-aminobutyric acid]
Sensory Effect(s) (subjects [3]; capsule, one line per subject (1-6)): tingling; also recorded: relaxation; also recorded: warmth - body | Duration (subjects [3]; per subject): 1.5 h | Duration (subjects [3]; [5]): 15-20 min and 45 min and 5 min (warmth) and 15 min | Time to Onset (subjects [3]; [5]): 15 min and 15-20 min (2×) and 10 min (warmth) and 30 min | subjects who reported noticeable effects (subjects [3]; six subjects): four of the six
